# Assay results as given in PMC10188607, “Quaternization of high molecular weight chitosan for increasing intestinal drug absorption using Caco-2 cells as an in vitro intestinal model” (Scientific Reports, 2023).
# Key:
# [1] = biological target: recombinant human P-gp membranes (Homo sapiens, UniProt P08183)
# Method: Effect of 600-HPTChC65 on P-gp ATPase activity was determined in recombinant human P-gp membranes with the use of the P-gp-Glo™ assay (Promega, Madison, Wisconsin), according to the manufacturer’s instruction.
# Caco-2 monolayers = experiment: TEER measurement of tight junction integrity in Caco-2 monolayers; format: cell-based, Human; conditions: inhibitor pre-incubated 30 min; for effect of inhibitor on 600-HPTChC65-mediated TEER reduction / tight junction opening: 0.005% (w/v) 600-HPTChC65, 2-h treatment; for effect of inhibitor on chitosan-mediated TEER reduction / tight junction opening: 0.005% (w/v) 600 kDa chitosan, 2-h treatment
# Method: Human colon adenocarcinoma Caco-2 cell line was obtained from the American Type Culture Collection (Manassas, VA, USA). The cells were maintained in complete medium (CM; Dulbeco's modified Eagle's medium supplemented with 10% (v/v) fetal bovine serum, 100 units/mL penicillin, 100 µg/mL streptomycin, 1% (v/v) non-essential amino acids and 2 mM L-glutamine) at 37 °C in a humidified atmosphere of 5% CO2. Cells were grown at a density of 6 × 10^4 and 1.5 × 10^5 cells/cm^2 on a transwell insert (0.4 µm pore size; Corning Life Sciences, Tewksbury, MA, USA) for 21 days and 14 days in paracellular and transcellular experiments, respectively. At the start of each experiment, the integrity of the Caco-2 monolayer was assessed by measurement of the transepithelial electrical resistance (TEER), using a chopstick-like electrode connected to a Millicell-ERS® (Millipore, Bedford, MA, USA). Cell monolayers with a TEER value of greater than 300 Ω cm^2 were used in each experiment.
# The 21 day-aged Caco-2 monolayers were incubated with transport buffers, i.e., 10 mM MES-HBSS, pH 6.5 on the apical side (the donor compartment) and 25 mM HEPES-HBSS, pH 7.4 on the basolateral side (the receiver compartment) for 30 min at 37 °C. Subsequently, the test chitosan in 1% (w/v) acetic acid was added to the apical side and incubated at 37 °C on an orbital shaker for 4 h. To investigate the tight junction signaling pathway, the monolayers were incubated with either ML-7, RO-318220 or genistein for 30 min at 37 °C prior to addition of the test chitosan. The TEER values were monitored at the indicated time points during the treatment period.
# For the measurement of tight junction recovery, each monolayer was incubated with the test chitosan for 1 h prior to replacement with CM for another 24 h in a CO2 incubator at 37 °C. The TEER value was measured at the indicated time points during the 24-h chitosan withdrawal period.
# recombinant human P-gp membranes, sequence (P08183 whole entry): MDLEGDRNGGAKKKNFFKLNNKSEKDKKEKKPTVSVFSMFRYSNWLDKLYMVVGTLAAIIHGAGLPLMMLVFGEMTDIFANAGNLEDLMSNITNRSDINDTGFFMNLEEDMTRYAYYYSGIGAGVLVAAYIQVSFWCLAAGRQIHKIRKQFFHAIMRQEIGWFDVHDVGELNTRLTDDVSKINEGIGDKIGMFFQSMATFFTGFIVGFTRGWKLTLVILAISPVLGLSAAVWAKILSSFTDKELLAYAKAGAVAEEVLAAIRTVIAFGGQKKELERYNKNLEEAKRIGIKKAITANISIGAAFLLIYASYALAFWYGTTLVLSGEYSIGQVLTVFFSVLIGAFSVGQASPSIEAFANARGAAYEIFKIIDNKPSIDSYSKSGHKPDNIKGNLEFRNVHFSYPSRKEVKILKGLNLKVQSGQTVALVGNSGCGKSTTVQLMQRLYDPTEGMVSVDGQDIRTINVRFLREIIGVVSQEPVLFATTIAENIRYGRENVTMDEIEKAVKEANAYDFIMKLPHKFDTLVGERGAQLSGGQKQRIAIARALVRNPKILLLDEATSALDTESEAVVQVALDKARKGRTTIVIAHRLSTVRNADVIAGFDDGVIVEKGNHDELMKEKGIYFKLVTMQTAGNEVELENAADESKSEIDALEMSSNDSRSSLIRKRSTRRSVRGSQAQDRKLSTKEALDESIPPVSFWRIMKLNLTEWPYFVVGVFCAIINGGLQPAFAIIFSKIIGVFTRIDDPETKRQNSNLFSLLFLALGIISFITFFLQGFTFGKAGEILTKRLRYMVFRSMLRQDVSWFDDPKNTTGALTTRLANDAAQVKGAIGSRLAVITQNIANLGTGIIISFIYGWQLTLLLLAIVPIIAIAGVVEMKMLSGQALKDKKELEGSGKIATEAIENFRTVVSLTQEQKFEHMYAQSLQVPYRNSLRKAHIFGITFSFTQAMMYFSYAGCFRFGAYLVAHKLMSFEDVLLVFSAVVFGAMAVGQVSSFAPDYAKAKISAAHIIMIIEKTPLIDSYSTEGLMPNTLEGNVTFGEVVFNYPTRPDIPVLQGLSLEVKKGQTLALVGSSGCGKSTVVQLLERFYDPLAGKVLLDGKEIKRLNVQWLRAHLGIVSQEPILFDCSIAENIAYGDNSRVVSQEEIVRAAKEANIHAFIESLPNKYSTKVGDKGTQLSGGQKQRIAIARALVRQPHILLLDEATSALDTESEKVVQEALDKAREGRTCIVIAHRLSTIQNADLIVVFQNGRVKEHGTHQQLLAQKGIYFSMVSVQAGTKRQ
Compound,P-gp ATPase activity (change in luminescence signal) [1],effect of inhibitor on 600-HPTChC65-mediated TEER reduction / tight junction opening (Caco-2 monolayers),effect of inhibitor on chitosan-mediated TEER reduction / tight junction opening (Caco-2 monolayers)
N-(2-hydroxypropyl)-3-trimethylammonium chitosan chloride [600-HPTChC65],increased ATPase activity,,
Cn1cc(C2=C(c3cn(CCCSC(=N)N)c4ccccc34)C(=O)NC2=O)c2ccccc21 [RO-318220],,did not prevent,no significant effect
O=S(=O)(c1cccc2c(I)cccc12)N1CCCNCC1 [ML-7],,did not prevent,partially prevent
O=c1c(-c2ccc(O)cc2)coc2cc(O)cc(O)c12 [genistein],,did not prevent,no significant effect
